Measurements taken from patent US5935955A, “Pharmaceutical piperazine compounds” (Xenova Limited, priority 1994, dated 1999).
Counter-ions that a name gives are not always drawn. Like-named read-outs stand apart in the source and are kept apart here.

Columns and labels:
AR 1.0 cells [1] = assay: Drug accumulation assay (tritiated daunorubicin); format: cell-based; details: Mus musculus; for Emax: 1 h, read-out: Max accumulation; for IC50: daunorubicin 2 μM, 1 hr at 37° C., read-out: IC50 accumulation
Description: AR 1.0 cells were seeded into 96 well opaque culture plates (Canberra Packard). The assay medium contained a mixture of tritiated Daunorubicin (DNR), a cytotoxic agent, and unlabelled DNR (0.3 μCi/ml; 2 μM). Compounds of formula I were serially diluted in assay medium over a range of concentrations from 5 nM to 100 μM. The cells were incubated at 37° C. for 1 hr before washing and determination of cell associated radioactivity. Results were expressed as % maximum accumulation where 100% accumulation is that observed in the presence of the known RMA verapamil at 100 μM. Where possible an IC50 was determined.

AR 1.0 cells [2] = assay: Compound toxicity (proliferation, sulphorhodamine B); format: cell-based; details: Mus musculus, 96 h; compound alone; AR 1.0 cells; four day incubation; read-out: Compound toxicity (IC50)
AR 1.0 cells [3] = assay: Potentiation of doxorubicin toxicity (fixed doxorubicin 0.86 μM, proliferation, sulphorhodamine B); format: cell-based, mouse; details: for IC50: with doxorubicin 0.86 μM, four day incubation, 5760 min, read-out: Toxicity with cytotoxic agent (IC50)
Source text: Compounds of formula (I) were examined for their ability to potentiate the toxicity of doxorubicin in AR 1.0 cells.

AR 1.0 cells [4] = assay: Potentiation index for doxorubicin (doxorubicin titration with fixed concentration of compound); format: cell-based, mouse; details: RMA at 1 μM; doxorubicin, four days
Description: The EMT6 mouse mammary carcinoma cell line and the MDR resistant sublime AR 1.0 were cultured in RPMI 1640 medium containing 10% foetal calf serum and 2 mM glutamine at 37° C. in 5% CO2. Cells were passaged between 1 in 200 and 1 in 2000 in the case of the parental cell line and between 1 in 20 and 1 in 200 in the case of the MDR resistant subline, after trypsinisation (0.25% trypsin, 0.2 gl^-1, EDTA).
Cells were cultured for four days with a titration of doxorubicin (0.01 nm-50 μM) in the presence of a fixed concentration of each compound. Proliferation was quantified as described by Skehan et. al, loc cit. The IC50 (concentration required to reduce proliferation to 50% of the untreated controls) for doxorubicin alone and with each compound were derived and used to calculate the potentiation index (PI): [formula]

[5] = % maximum accumulation, 100% = verapamil at 100 μM, compound 5 nM to 100 μM

| SMILES | IC50 (AR 1.0 cells [1]) | Emax (AR 1.0 cells [1]; [5]) | IC50 (AR 1.0 cells [2]) | IC50 (AR 1.0 cells [3]) | also measured |
| --- | --- | --- | --- | --- | --- |
| COc1cc2c(cc1OC)CN(CCCc1ccc(NC(=O)c3cccc(/C=c4\[nH]c(=O)/c(=C/c5ccccc5)n(C)c4=O)c3)cc1)CC2 [Compound 9161, N-(4-(3-(6,7-Dimethoxy-1,2,3,4-tetrahydro-2-isoquinolyl)propyl)phenyl)-3-((3Z,6Z)-6-benzylidene-1-methyl-2,5-dioxo-3-piperazinylidene)methylbenzamide,hydrochloride] | – | 20% | – | – | – |
| CN(C)CC(O)COc1ccc(/C=c2\[nH]c(=O)/c(=C/c3ccccc3)n(C)c2=O)cc1 (stereo not drawn) [Compound 9023, (3Z,6Z)-6-Benzylidene-3-(4-(3-dimethylamino-2-hydroxypropoxy)benzylidene)-1-methyl-2,5-piperazinedione] | – | 30% | 10 µM | 5 µM | – |
| COc1cccc2c1C(=O)c1c(O)c3c(c(O)c1C2=O)C[C@@](O)(C(=O)CO)C[C@@H]3O[C@H]1C[C@H](N)[C@H](O)[C@H](C)O1 [doxorubicin, reference compound] | – | – | – | – | Toxicity of doxorubicin alone (AR 1.0 cells [3]; doxorubicin alone, 0.86 μM, AR 1.0 cells): non-toxic |
| Cn1c(=O)/c(=C/c2ccc(C(=O)Nc3ccc(N4CCOCC4)cc3)cc2)[nH]c(=O)/c1=C/c1ccccc1 [Compound 9054, N-(4-Morpholinophenyl)-4-((3Z,6Z)-6-benzylidene-1-methyl-2,5-dioxo-3-piperazinylidene)methylbenzamide, hydrochloride] | – | 32% | 50 µM | 30 µM | – |
| COc1cc2c(cc1OC)CN(CCc1ccc(/C=c3\[nH]c(=O)/c(=C/c4ccccc4)n(C)c3=O)cc1)CC2 [Compound 9115, (3Z,6Z)-6-Benzylidene-3-(4-(2-(6,7-dimethoxy-1,2,3,4-tetrahydro-2-isoquinolyl)ethyl)benzylidene)-1-methyl-2,5-piperazinedione] | 5 µM | – | 60 µM | 2 µM | – |
| COc1ccc(CCN(C)CCNC(=O)c2cccc(/C=c3\[nH]c(=O)/c(=C/c4ccccc4)n(C)c3=O)c2)cc1OC [Compound 9137] | 2 µM | – | 12 µM | 4.5 µM | – |
| Cn1c(=O)/c(=C/c2ccc(C(=O)Nc3ccc(CCN4CCN(c5ccccc5)CC4)cc3)cc2)[nH]c(=O)/c1=C/c1ccccc1 [Compound 9103, N-(4-(2-(4-Phenyl-1-piperazinyl)ethyl)phenyl)-4-((3Z,6Z)-6-benzylidene-1-methyl-2,5-dioxo-3-piperazinylidene)methylbenzamide] | – | 20% | – | – | – |
| Cn1c(=O)/c(=C/c2ccc(C(=O)Nc3ccc(CCN4CCN(c5cccc(C(F)(F)F)c5)CC4)cc3)cc2)[nH]c(=O)/c1=C/c1ccccc1 [Compound 9049, N-(4-(2-(4-(3-Trifluoromethylphenyl)-1-piperazinyl)ethyl)phenyl)-4-((3Z,6Z)-6-benzylidene-1-methyl-2,5-dioxo-3-piperazinylidene)methylbenzamide] | – | 20% | 2 µM | – | Potentiation index (AR 1.0 cells [4]): 15 |
| CN1CCN(CCNC(=O)c2ccc(/C=c3\[nH]c(=O)/c(=C/c4ccccc4)n(C)c3=O)cc2)CC1 [Compound 9007, N-(2-(4-Methyl-1-piperazinyl)ethyl)-4-((3Z,6Z)-6-benzylidene-1-methyl-2,5-dioxo-3-piperazinylidene)methylbenzamide] | – | 30% | – | – | – |
| Cn1c(=O)/c(=C/c2ccc(C(=O)Nc3ccc(CCN4CCc5c([nH]c6ccccc56)C4)cc3)cc2)[nH]c(=O)/c1=C/c1ccccc1 [Compound 9080, N-(4-(2-(1,2,3,4-Tetrahydro-β-carbolin-2-yl)ethyl)phenyl)-4-((3Z,6Z)-6-benzylidene-1-methyl-2,5-dioxo-3-piperazinylidene)methylbenzamide] | – | – | – | – | Emax (AR 1.0 cells [1]): 18% |
| Cn1c(=O)/c(=C/c2ccc(C(=O)Nc3ccc(CN4CCc5c([nH]c6ccccc56)C4)cc3)cc2)[nH]c(=O)/c1=C/c1ccccc1 [Compound 9096, N-(4-(1,2,3,4-Tetrahydro-β-carbolin-2-yl)methylphenyl)-4-((3Z,6Z)-6-benzylidene-1-methyl-2,5-dioxo-3-piperazinylidene)methylbenzamide] | – | – | – | – | Emax (AR 1.0 cells [1]): 20% |
| COc1cc2c(cc1OC)CN(CC1CCN(C(=O)c3ccc(/C=c4\[nH]c(=O)/c(=C/c5ccccc5)n(C)c4=O)cc3)CC1)CC2 [Compound 9200, 1-(4-((3Z,6Z)-6-Benzylidene-1-methyl-2,5-dioxo-3-piperazinylidene)methylbenzoyl)-4-(6,7-dimethoxy-1,2,3,4-tetrahydroisoquinolyl)methylpiperidine] | 1.7 µM | – | 13 µM | 0.8 µM | – |
| CN(CCNC(=O)c1ccc(/C=c2\[nH]c(=O)/c(=C/c3ccccc3)n(C)c2=O)cc1)C(c1ccccc1)c1ccccc1 [Compound 9076, N-(2-Diphenylmethylmethylaminoethyl)-4-((3Z,6Z)-6-benzylidene-1-methyl-2,5-dioxo-3-piperazinylidene)methylbenzamide, hydrochloride] | – | 44% | – | – | – |

Further lines, with some results ahead:

| IC50 (AR 1.0 cells [1]) | SMILES | Emax (AR 1.0 cells [1]; [5]) | IC50 (AR 1.0 cells [2]) | IC50 (AR 1.0 cells [3]) | also measured |
| --- | --- | --- | --- | --- | --- |
| 2 µM | Cn1c(=O)/c(=C/c2cccc(C(=O)Nc3ccc(CCN4CCN(c5ccccc5)CC4)cc3)c2)[nH]c(=O)/c1=C/c1ccccc1 [Compound 9083, N-(4-(2-(4-Phenyl-1-piperazinyl)ethyl)phenyl)-3-((3Z,6Z)-6-benzylidene-1-methyl-2,5-dioxo-3-piperazinylidene)methylbenzamide] | – | 3 µM | 0.1 µM | – |
| 6 µM | Cn1c(=O)/c(=C/c2ccc(C(=O)Nc3ccc(CCN4CCc5ccccc5C4)cc3)cc2)[nH]c(=O)/c1=C/c1ccccc1 [Compound 9065, N-(4-(2-(1,2,3,4-Tetrahydro-2-isoquinolyl)ethyl)phenyl)-4-((3Z,6Z)-6-benzylidene-1-methyl-2,5-dioxo-3-piperazinylidene)methylbenzamide] | – | 2 µM | – | Potentiation index (AR 1.0 cells [4]): 15 |
| 4 µM | Cn1c(=O)/c(=C/c2ccc(C(=O)NCCN3CCc4ccccc4C3)cc2)[nH]c(=O)/c1=C/c1ccccc1 [Compound 9116, N-(2-(1,2,3,4-Tetrahydro-2-isoquinolyl)ethyl)-4-((3Z,6Z)-6-benzylidene-1-methyl-2,5-dioxo-3-piperazinylidene)methylbenzamide, hydrochloride] | – | 8 µM | 1 µM | – |
| 5 µM | COc1ccc(CCNC(=O)c2ccc(/C=c3\[nH]c(=O)/c(=C/c4ccccc4)n(C)c3=O)cc2)cc1OC [Compound 9117, N-(3,4-Dimethoxyphenethyl)-4-((3Z,6Z)-6-benzylidene-1-methyl-2,5-dioxo-3-piperazinylidene)methylbenzamide] | – | 8 µM | 3 µM | – |
| 50 µM | Cn1c(=O)/c(=C/c2ccc(C(=O)NCCN3CCOCC3)cc2)[nH]c(=O)/c1=C/c1ccccc1 [Compound 9053, N-(2-Morpholinoethyl)-4-((3Z,6Z)-6-benzylidene-1-methyl-2,5-dioxo-3-piperazinylidene)methylbenzamide, hydrochloride] | – | 40 µM | – | – |
| 3 µM | COc1cc2c(cc1OC)CN(CCNC(=O)c1ccc(/C=c3\[nH]c(=O)/c(=C/c4ccccc4)n(C)c3=O)cc1)CC2 [Compound 9008, N-(2-(6,7-Dimethoxy-1,2,3,4-tetrahydro-2-isoquinolyl)ethyl)-4-((3Z,6Z)-6-benzylidene-1-methyl-2,5-dioxo-3-piperazinylidene)methylbenzamide] | – | 10 µM | 2 µM | – |
| 5 µM | C=CCNC(=O)c1ccc(/C=c2\[nH]c(=O)/c(=C/c3ccccc3)n(C)c2=O)cc1 [Compound 9070, N-Allyl-4-((3Z,6Z)-6-benzylidene-1-methyl-2,5-dioxo-3-piperazinylidene)methylbenzamide] | – | 40 µM | – | – |
| 5 µM | Cl.Cn1c(=O)/c(=C/c2ccc(C(=O)Nc3ccc(CN4CCN(c5ccccc5)CC4)cc3)cc2)[nH]c(=O)/c1=C/c1ccccc1 [Compound 9104, N-(4-(4-Phenyl-1-piperazinyl)methylphenyl)-4-((3Z,6Z)-6-benzylidene-1-methyl-2,5-dioxo-3-piperazinylidene)methylbenzamide, hydrochloride] | – | 40 µM | – | Potentiation index (AR 1.0 cells [4]): 17 |
| 3 µM | COc1cc2c(cc1OC)CN(Cc1ccc(NC(=O)c3cccc(/C=c4\[nH]c(=O)/c(=C/c5ccccc5)n(C)c4=O)c3)cc1)CC2 [Compound 9128, N-(4-(6,7-Dimethoxy-1,2,3,4-tetrahydro-2-isoquinolyl)methylphenyl)-3-((3Z,6Z)-6-benzylidene-1-methyl-2,5-dioxo-3-piperazinylidene)methylbenzamide] | – | 10 µM | 2 µM | – |
| 100 µM | CN1CCN(C(=O)c2ccc(/C=c3\[nH]c(=O)/c(=C/c4ccccc4)n(C)c3=O)cc2)CC1 [Compound 9052, 1-(4-((3Z,6Z)-6-Benzylidene-1-methyl-2,5-dioxo-3-piperazinylidene)methylbenzoyl)-4-methylpiperazine, hydrochloride] | – | – | – | – |
